Data on 53 compounds can be found in PubChem BioAssay AID179 (DTP/NCI, 2004).

Structures are written as SMILES. Active and inactive are the calls of the source.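 The calls were made as follows: active = compounds giving half or more protection of infected cells from virus-caused growth loss, again on retest; inactive = the rest.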

For this experiment, the system named is CEM cells HIV-1 protection, formazan growth assay. Put plainly: NCI AIDS Antiviral Assay. Conditions: for IC50: measured here: growth of uninfected CEM cells. Put shortly:
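Steps: treat uninfected and HIV-1-infected human CEM cells at five drug levels; quantify growth by soluble formazan; retest any compound reaching 50% protection; classify actives from the retest.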

For the compound `Clc1ccc2nncc(N3CC3)c2c1`, the result was inactive.
`O=C1C2C(C(=O)N1c1ccccc1)C1(c3ccccc3)CCC2(C(=O)c2ccccc2)O1` (stereo not drawn): the EC50 is > 200 µM and the IC50 came out at 50.1 µM.
Take `COc1ccc(-n2c(N)c(C#N)c(C#N)c2-c2ccco2)cc1`: the EC50 is > 200 µM and the IC50 was > 200 µM.
In the case of `CCOC(=O)NC(Nc1ccc(C)cc1)(C(F)(F)F)C(F)(F)F`, the EC50 was > 200 µM and the IC50 is > 200 µM.
As to `CCOC(CNCCC(=O)OC)OCC`, the result was inactive.
For the compound `CC#CCCC1CCCCN(C(=O)OC(C)(C)C)C1OCC` (stereo not drawn), the EC50 was > 115 µM and the IC50 came out at 58.9 µM.
`Cc1nn(-c2ccccc2)c(-c2ccccc2[N+](=O)[O-])c1CC#N`: the result was inactive.
For the compound `CCCCCCCCCCCCCCC[C@@H](O)C[N+](C)(C)CCO`, the EC50 was > 200 µM and the IC50 turned out to be 2.82 µM.
As to `COC(=O)C1CC2c3c(c4ccccc4n3C)CC(C1=O)N2C` (stereo not drawn), the result was inactive.
Take `CC1=C(C)SC(=C2Sc3c(n(C)c(=O)[nH]c3=O)S2)S1`: the EC50 was > 200 µM and the 50% inhibitory concentration (IC50) was > 200 µM.
For the compound `C=CCCCCOC1C=CC(OC(C)=O)C(COC(C)=O)O1` (stereo not drawn), the EC50 is > 200 µM and the 50% inhibitory concentration (IC50) was > 200 µM.
For the compound `CC1=C(N2CC2)C(=O)c2nc3n(c2C1=O)CCC3OC(=O)CCl` (stereo not drawn), the EC50 was > 200 µM and the IC50 is 0.692 µM.
In the same order, the values of `C/C(=N/Nc1ccc([N+](=O)[O-])cc1[N+](=O)[O-])c1ccccc1` are > 3.47 µM and > 3.47 µM.
Turning to `COc1ccc(NC(=S)Nc2ccccn2)cc1`, the EC50 is > 200 µM and the IC50 was > 200 µM.
As for `O=C(Nc1cc(S(=O)(=O)O)cc2cc(S(=O)(=O)O)c(N=Nc3cc(Nc4nc(Cl)nc(Nc5ccc(S(=O)(=O)O)cc5)n4)ccc3S(=O)(=O)O)c(O)c12)c1ccccc1`, the result was inactive.
`CCCC1=C(CC)C(C(=O)Nc2c(C)cccc2C)=NC(S)N1` (stereo not drawn): the EC50 was > 107 µM and the half-inhibitory concentration (IC50) was > 107 µM.
In the case of `COc1ccc2[nH]c3c(C)c4ccnc(NCCCN(C)CCCNc5ccc([N+](=O)[O-])c6[nH]c7ccccc7c(=O)c56)c4c(C)c3c2c1`, the EC50 is > 0.0501 µM and the IC50 worked out at 0.0257 µM.
On to `CC(C)CCCC(C)[C@H]1CC[C@H]2[C@@H]3CC[C@H]4C[C@@H](CCC=C(c5cc(Cl)c(O)c(C(=O)OCc6ccccc6)c5)c5cc(Cl)c(O)c(C(=O)OCc6ccccc6)c5)CC[C@]4(C)[C@H]3CC[C@]12C` (stereo partly drawn), for which the result was inactive.
Turning to `CCC1=C(CC2NCCc3ccccc32)CC2c3cc(OC)c(OC)cc3CCN2C1` (stereo not drawn), the result was inactive.
As for `CC1CN(C(=O)CN2CCC(CCCCN(C)C)CC2)c2ccccc2NC1=O` (stereo not drawn), the EC50 is > 251 µM and the IC50 was > 251 µM.
As to `O=C(O)CN1CCNCCN(CC(=O)O)CCN(CC(=O)O)CCNCC1`, the EC50 is > 200 µM and the IC50 was 178 µM.
For `Oc1ccc(SCc2cc(O)ccc2O)cc1`, the EC50 was > 200 µM and the IC50 was 7.08 µM.
The like results for `CN1C(=O)/C(=C2\SC(=O)N(CN3CCCCC3)C2=O)c2cc(Br)ccc21` were, in that order, > 200 µM and 91.2 µM.
Turning to `NC1=CN2c3ccccc3N(CC(=O)N3CCOCC3)C2C=C1` (stereo not drawn), the EC50 is > 200 µM and the 50% inhibitory concentration (IC50) is > 200 µM.
Regarding `C[C@@H]1OC2(O)[C@@H]3CCCN3C(=O)N(Cc3ccccc3)N2C1=O` (stereo partly drawn), the EC50 was > 200 µM and the half-inhibitory concentration (IC50) is > 200 µM.
Regarding `CC(=O)Oc1cc2c(n(C)c1=O)-c1ccccc1C2`, the EC50 is > 200 µM and the 50% inhibitory concentration (IC50) is 6.61 µM.
As for `N#CC1(c2nc3ccccc3o2)C(=O)C(=O)N(C2C3CC4CC(C3)CC2C4)C(=O)C1=O` (stereo not drawn), the EC50 is > 107 µM and the half-inhibitory concentration (IC50) was > 107 µM.
On to `O=C1c2ccccc2C(=O)N1CCC[P+](c1ccccc1)(c1ccccc1)c1ccccc1`, for which the EC50 was > 200 µM and the concentration for half-maximal inhibition (IC50) was found to be 95.5 µM.
For the compound `Cc1nc2n(C)c3ncn(Cc4ccccc4)c3c(=O)n2c1/C=C/C(C)C`, the EC50 was > 33.1 µM and the IC50 is > 33.1 µM.
Take `C#CC(C)(C)OCCCCOc1cc(O)c2c(=O)c3ccccc3n(C)c2c1`: the EC50 is > 3.8 µM and the IC50 was > 3.8 µM.
For `NC(=S)C(=S)N=Cc1c(O)c2ccccc2oc1=O`, the EC50 is > 200 µM and the 50% inhibitory concentration (IC50) turned out to be 102 µM.
In the same order, the values of `CC1CC(C)(C)N=C(CCC[N+](=O)[O-])O1` (stereo not drawn) are > 200 µM and > 200 µM.
Take `Cc1cccc(C(O)c2ccncc2)c1O` (stereo not drawn): the EC50 was > 200 µM and the IC50 is 191 µM.
Turning to `O=C(CC1(O)C(=O)Nc2ccc(Br)cc21)c1ccc(Cl)cc1Cl` (stereo not drawn), the EC50 was > 162 µM and the IC50 worked out at 95.5 µM.
Take `Nn1c(SCC(=O)NCc2ccccc2)nc2ccccc2c1=O`: the concentration giving a half-maximal response (EC50) was 12.6 µM and the concentration for half-maximal inhibition (IC50) was 95.5 µM.
Regarding `COc1ccc(N2C(=O)C3c4[nH]c5ccccc5c4C4CCCCCCC4C3C2=O)cc1` (stereo not drawn), the EC50 is > 8.71 µM and the half-inhibitory concentration (IC50) was > 8.71 µM.
For the compound `Cc1cccc(C=C2C(=O)NC(=O)NC2=O)c1`, the EC50 is > 407 µM and the IC50 is > 407 µM.
In the case of `CC[C@H]1C2OC(=O)[C@H](C)C2[C@@]2(O)C[C@@H]([C@@H]3C[C@H](C)C(=O)O3)N3CCCC[C@@]12C3=O` (stereo partly drawn), the EC50 is > 200 µM and the 50% inhibitory concentration (IC50) was > 200 µM.
With `CCNc1nc2c(ncn2C2CC(O)C(COP(=O)(O)O)O2)c(=O)[nH]1` (stereo not drawn), the EC50 was > 100 µM and the IC50 was > 100 µM.
On to `CCO/C=N\C1=C(C#N)SC2=N/C(=C\c3ccco3)C(=O)N21`, for which the outcome was inactive.
For the compound `CCOC(=O)C1=C(C)NC(C)=C(C(=O)OCCNC(=O)c2ccc(N=[N+]=[N-])cc2)C1c1ccccc1C(F)(F)F` (stereo not drawn), the EC50 is > 200 µM and the half-inhibitory concentration (IC50) came to 10.5 µM.
For the compound `CCc1ccccc1-n1c2nc(=O)n(C)c(=O)c-2nc2ccccc21`, the outcome was inactive.
Consider `CC1(C)COC(c2ccc(C(F)(F)F)cc2C(O)c2ccc3ccccc3c2)=N1` (stereo not drawn), for which the result was inactive.
For the compound `C=CN1C(=O)[C@H](Oc2ccccc2)[C@@H]1c1ccccc1`, the EC50 is > 135 µM and the IC50 was determined as 63.1 µM.
For the compound `C1=CC=C(N=P(c2ccccc2)(c2ccccc2)c2ccccc2)CC=C1`, the result was inactive.
For `CC1CC/C(=C\c2ccc(F)cc2)C2=C1C(c1ccc(F)cc1)n1c(s/c(=C/c3cccc(Br)c3)c1=O)=N2` (stereo not drawn), the outcome was inactive.
As for `COc1cc(C2SCC(=O)N2c2ccc(-c3ccc(-n4c(-c5ccccc5)nc5ccccc5c4=O)cc3)cc2)ccc1O` (stereo not drawn), the EC50 was > 200 µM and the concentration for half-maximal inhibition (IC50) is 67.6 µM.
As for `O=C1NC(N2CCOCC2)=N/C1=C\c1ccccc1`, the EC50 was > 200 µM and the IC50 is > 200 µM.
With `COc1ccc2c(c1)N1CCc3cc(OC)c(OC)cc3C1C2` (stereo not drawn), the result was inactive.
Take `Cc1noc2c1CC(=O)c1ccccc1OC2`: the EC50 is > 389 µM and the concentration for half-maximal inhibition (IC50) was found to be 224 µM.
In the same order, the values of `[N-]=[N+]=C(S(=O)(=O)O)S(=O)(=O)O` are > 200 µM and > 200 µM.
The like results for `COc1ccc(C(C)NNC(=O)c2ccncc2)cc1OC` (stereo not drawn) were, in that order, > 200 µM and 30.2 µM.
In the same order, the values of `COC(=O)C/C(C(=O)OC)=C1\CCC2=C1N1CCCC1C2(CC(=O)OC)C(=O)OC` (stereo not drawn) are > 162 µM and > 162 µM.

The term EC50 denotes the midpoint of the concentration-response curve. Usually IC50 stands for the midpoint of a concentration-inhibition curve. A high value points to lower potency.
